The nature of the data set: Saturation solubility of color developer free base in solvents and solvent/water mixtures (HPLC and NMR). To be noted: for Solubility in the solvents evaluated (in words): all solvents evaluated, room temperature; for CD Free Base Conc. (saturation solubility): ambient temperature, 3% DEHA added.

The values below come from patent publication US20050037294A1, “Stabilized p-phenylenediamine-type photographic color developers in free base form” (priority 2000, published 2005).

Protocol: Representative solvents were selected from each of the different classes of solvents: alcohols, glycols and glycol ethers. A small quantity of a representative preservative, 3% of N,N-dietheylhydroxylamine (DEHA), was added.

On to `CCN(CC)c1ccc(N)c(C)c1` [CD-2 free base, 4-amino-3-methyl-N,N-diethylaniline], for which the “Solubility in the solvents evaluated (in words)” value is “fully miscible”.

With `CCN(CCNS(C)(=O)=O)c1ccc(N)c(C)c1` [CD-3 free base, 4-amino-3-methyl-N-ethyl-N-(2-methanesulfonamidoethyl)aniline], the “Solubility in the solvents evaluated (in words)” value was “lesser solubility”. For the same compound, the “CD Free Base Conc. (saturation solubility)” value (2-Propanol/Water 10:90 (weight:weight)) was 0.8 weight percent. Besides, the “CD Free Base Conc. (saturation solubility)” value (2-Propanol/Water 50:50 (weight:weight)) amounted to 9.2 weight percent. The “CD Free Base Conc. (saturation solubility)” value (2-Propanol/Water 90:10 (weight:weight)) is given as 7.8 weight percent. Further, the “Solubility in 2-propanol (in words)” value (2-propanol) is recorded as “low solubility”. Moreover, the “CD Free Base Conc. (saturation solubility)” value (Ethanol/Water 10:90 (weight:weight)) is 0.6 weight percent. Further, the “CD Free Base Conc. (saturation solubility)” value (Ethanol/Water 50:50 (weight:weight)) was 9.0 weight percent. Besides, the “CD Free Base Conc. (saturation solubility)” value (Ethanol/Water 90:10 (weight:weight)) was found to be 9.7 weight percent. Moreover, the “CD Free Base Conc. (saturation solubility)” value (Methanol/Water 10:90 (weight:weight)) worked out at 0.7 weight percent. Moreover, the “CD Free Base Conc. (saturation solubility)” value (Methanol/Water 50:50 (weight:weight)) is 6.8 weight percent. Besides, under “Methanol/Water 90:10 (weight:weight)”, the “CD Free Base Conc. (saturation solubility)” value was found to be 18.9 weight percent. For the same compound, where the note is “solvent 2-Isopropoxyethanol”, the “CD Free Base Conc. (saturation solubility)” value is given as 8.6 weight percent. In addition, the “CD Free Base Conc. (saturation solubility)” value (solvent 2-Methyl-1,3-Propanediol) is 3.3 weight percent. In addition, the “CD Free Base Conc. (saturation solubility)” value (solvent 2-Propanol) was determined as 1.8 weight percent. Under “solvent 3-Methoxy-1-Butanol”, the “CD Free Base Conc. (saturation solubility)” value came to 9.3 weight percent. The “CD Free Base Conc. (saturation solubility)” value (solvent Diethylene Glycol) stood at 15.2 weight percent. Where the note is “solvent Ethanol”, the “CD Free Base Conc. (saturation solubility)” value came to 5.4 weight percent. In addition, for the setting “solvent Methanol”, the “CD Free Base Conc. (saturation solubility)” value is 23.6 weight percent. Further, the “CD Free Base Conc. (saturation solubility)” value (solvent PEG-200) is given as 16.9 weight percent. Also, where the note is “solvent PEG-300”, the “CD Free Base Conc. (saturation solubility)” value came to 16.7 weight percent.
